Test results reported in paper PMC11212047, “Merging Flow Synthesis and Enzymatic Maturation to Expand the Chemical Space of Lasso Peptides” (Journal of the American Chemical Society, 2024).
Where no end group is shown, it is not given here.

Tested on: Salmonella enterica serotype Enteritidis
Test: Spot-on-lawn antimicrobial activity assay
Assay type: cell-based
Conditions: spot-on-lawn on M63 soft agar, 37 °C overnight; dried maturation assay in MeOH (41.7 µM if full conversion, 5 µL; Tyr9 derivatives also 69.5 µM, 8 µL); halo diameters
Protocol: We next evaluated all lasso peptides and their corresponding branched-cyclic peptides for antimicrobial activity in spot-on-lawn assays against Salmonella enterica serotype Enteritidis.[42] […] Moreover, steric constraints in the tight binding pocket are a limiting factor for Tyr-9 substitutions.
4.3 Antimicrobial activity assay against Salmonella strain
The antimicrobial activity assay of MccJ25-derivatives was performed against the indicative strain Salmonella enterica serotype Enteritidis.
4.3.1 Preparation of M63 agar
For M63 agar plates (20 g agar/L): KH2PO4 (3 g/L), K2HPO4 (7 g/L), (NH4)2SO4 (2 g/L), Casamino acids (1 g/L) were dissolved in 900 mL water. Agar (20 g/L) was added, and the suspension was filled up to 1 L and autoclaved (121 °C for 20 min). […]
The indicative strain is freshly streaked on a LB agar plate and incubated at 37 °C overnight. […] The plates were inspected for bacterial growth and possible halos were measured. […]
Fig. S77: Antimicrobial activity test using spot-on-lawn assays with dried m aturation assay dissolved in 30 µL MeOH: (A) Peptides analyzed after maturation assay. (B) Photos of spot -on-lawn assays and measured halo diameters to evaluate trends in activity. The peptide with three D-amino acids was analyzed on a different date, ther efore, diameter of control C (MccJ25) . […]

For “9′: His-12 MccJ25 mutant (His-12, Phe-13, Ile-15), L-His (GGAGHVPEYFVHFGIPISFYG; ends and bridges not checked; also: lasso peptide: isopeptide ring closure, ring positions not given here; UniProt Q9X2V7 38-58, looked up, variant G12H I13F T15I)”, the “antimicrobial activity of enzymatically matured lasso peptides (in words)” value was “slightly stronger activity”.

With “microcin J25 (GGAGHVPEYFVGIGTPISFYG; lactam (positions not given here); also: lasso peptide: isopeptide ring closure, ring positions not given here; UniProt Q9X2V7 38-58, looked up) [1′, native lasso peptide (21 AA), matured from WT-McjA, reference compound]” the “antimicrobial activity of enzymatically matured lasso peptides (in words)” value was “activities were only observed”.
